The structures appear in SMILES notation.

The values below come from patent publication US20240368135A1 (VERTEX PHARMACEUTICALS INCORPORATED, priority 2021, published 2024).

human NaV 1.8, sequence (Q9Y5Y9 126-399 limits assumed): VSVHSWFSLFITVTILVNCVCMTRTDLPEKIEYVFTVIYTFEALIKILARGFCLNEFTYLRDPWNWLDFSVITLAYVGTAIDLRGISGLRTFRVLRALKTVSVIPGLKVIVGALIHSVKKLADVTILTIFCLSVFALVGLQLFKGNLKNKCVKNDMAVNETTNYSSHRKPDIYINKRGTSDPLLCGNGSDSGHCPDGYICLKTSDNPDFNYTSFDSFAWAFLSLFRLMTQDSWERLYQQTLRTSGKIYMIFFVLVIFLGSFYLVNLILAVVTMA
human NaV 1.8, sequence (Q9Y5Y9 660-890 limits assumed): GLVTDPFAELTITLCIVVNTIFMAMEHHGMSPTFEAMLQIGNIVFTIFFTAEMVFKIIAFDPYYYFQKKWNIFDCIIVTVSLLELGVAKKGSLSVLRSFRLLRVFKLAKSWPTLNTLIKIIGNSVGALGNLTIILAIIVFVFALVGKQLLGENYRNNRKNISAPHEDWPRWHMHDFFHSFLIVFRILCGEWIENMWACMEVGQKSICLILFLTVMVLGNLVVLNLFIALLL
human NaV 1.8, sequence (Q9Y5Y9 1148-1722 limits assumed): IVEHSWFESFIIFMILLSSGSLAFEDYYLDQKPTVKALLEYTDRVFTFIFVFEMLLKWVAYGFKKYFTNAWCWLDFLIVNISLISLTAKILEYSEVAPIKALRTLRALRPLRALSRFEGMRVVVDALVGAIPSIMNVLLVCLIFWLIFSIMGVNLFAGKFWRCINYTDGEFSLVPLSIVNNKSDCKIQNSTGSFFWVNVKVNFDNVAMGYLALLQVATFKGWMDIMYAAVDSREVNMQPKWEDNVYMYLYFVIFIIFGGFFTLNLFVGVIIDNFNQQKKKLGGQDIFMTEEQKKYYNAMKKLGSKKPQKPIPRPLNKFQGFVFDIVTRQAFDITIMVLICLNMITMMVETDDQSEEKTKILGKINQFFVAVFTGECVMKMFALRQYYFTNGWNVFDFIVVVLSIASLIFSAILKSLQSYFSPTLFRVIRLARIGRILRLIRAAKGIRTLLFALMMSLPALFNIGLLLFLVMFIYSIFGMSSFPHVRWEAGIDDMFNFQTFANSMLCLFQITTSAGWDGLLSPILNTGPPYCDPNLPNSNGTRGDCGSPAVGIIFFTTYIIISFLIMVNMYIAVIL

The assay addresses human NaV 1.8 (Homo sapiens, UniProt Q9Y5Y9). Briefly: E-VIPR assay detecting and measuring NaV inhibition properties. The conditions noted are these: HEK cells expressing truncated human NaV 1.8; no human serum; read-out: IC50 in the E-VIPR Assay. Type of assay: cell-based. In short, it runs like this: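 HEK cells expressing truncated, fully active human NaV1.8, with KIR2.1 BacMam co-transduction, were loaded with CC2-DMPE/DiSBAC6(3) voltage-sensing dyes for 20 min at room temperature. Compounds were tested in 11-point 3-fold dilutions (300 nM top final), optionally with 25% human serum, under electrical stimulation with FRET read-out.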
The IC50 is the concentration that gives 50% inhibition. On to `C[C@H]1[C@@H](c2ccc(F)c(F)c2OC(F)F)[C@H](C(=O)Nc2ccnc(C(C)(C)O)c2)O[C@@]1(C)C(F)(F)F` (single isomer, unassigned) [Compound 84], for which the IC50 is less than 10 nM. The value for `COC[C@@H](O)Cc1cc(NC(=O)[C@@H]2O[C@@](C)(C(F)(F)F)[C@@H](C)[C@H]2c2ccc(F)c(F)c2OC)ccn1` [Compound 369, (2R,3S,4S,5R)-3-(3,4-difluoro-2-methoxyphenyl)-N-(2-((S)-2-hydroxy-3-methoxypropyl)pyridin-4-yl)-4,5-dimethyl-5-(trifluoromethyl)tetrahydrofuran-2-carboxamide] was less than 10 nM; that for `COc1c([C@H]2[C@H](C(=O)Nc3ccc4nc(C(=O)N5CCOCC5)cn4c3)O[C@@](C)(C(F)(F)F)[C@H]2C)ccc(F)c1F` [Compound 259, (2R,3S,4S,5R)-3-(3,4-difluoro-2-methoxyphenyl)-4,5-dimethyl-N-(2-(morpholine-4-carbonyl)imidazo[1,2-a]pyridin-6-yl)-5-(trifluoromethyl)tetrahydrofuran-2-carboxamide] was 10 to 100 nM; that for `COc1c([C@H]2[C@H](C(=O)Nc3ccnc(N4CCN(C)CC4)c3)O[C@@](C)(C(F)(F)F)[C@H]2C)ccc(F)c1F` [Compound 312, (2R,3S,4S,5R)-3-(3,4-difluoro-2-methoxyphenyl)-4,5-dimethyl-N-(2-(4-methylpiperazin-1-yl)pyridin-4-yl)-5-(trifluoromethyl)-tetrahydrofuran-2-carboxamide] was 10 to 100 nM.

On to `COc1c([C@H]2[C@H](C(=O)NC(C)c3ccn[nH]3)O[C@@](C)(C(F)(F)F)[C@H]2C)ccc(F)c1F` (stereo partly drawn) [Compound 275, (2R,3S,4S,5R)-N-(1-(1H-pyrazol-5-yl)ethyl)-3-(3,4-difluoro-2-methoxyphenyl)-4,5-dimethyl-5-(trifluoromethyl)tetrahydrofuran-2-carboxamide], for which the IC50 was not below 1000 nM. `COc1c([C@H]2[C@H](C(=O)Nc3cnnc(N4C(=O)CN(C)C[C@H]4C)c3)O[C@@](C)(C(F)(F)F)[C@H]2C)ccc(F)c1F` [Compound 384, (2R,3S,4S,5R)-3-(3,4-difluoro-2-methoxyphenyl)-N-(6-((R)-2,4-dimethyl-6-oxopiperazin-1-yl)pyridazin-4-yl)-4,5-dimethyl-5-(trifluoromethyl)tetrahydrofuran-2-carboxamide]: the IC50 was less than 10 nM.

Consider `C[C@H]1[C@@H](c2ccc(F)c(F)c2OCCO)[C@H](C(=O)Nc2cnnn2C)O[C@@]1(C)C(F)(F)F` [Compound 573, (2R,3S,4S,5R)-3-(3,4-difluoro-2-(2-hydroxyethoxy)phenyl)-4,5-dimethyl-N-(1-methyl-1H-1,2,3-triazol-5-yl)-5-(trifluoromethyl)tetrahydrofuran-2-carboxamide], for which the IC50 was in the range of 100 to 1000 nM. The value for `COc1c([C@H]2[C@H](C(=O)Nc3ccnc(S(C)(=N)=O)c3)O[C@@](C)(C(F)(F)F)[C@H]2C)ccc(F)c1C` (relative stereo) [Compound 151, rel-(2R,3S,4S,5R)-3-(4-fluoro-2-methoxy-3-methylphenyl)-4,5-dimethyl-N-(2-(S-methylsulfonimidoyl)pyridin-4-yl)-5-(trifluoromethyl)tetrahydrofuran-2-carboxamide] was less than 10 nM. On to `COc1c([C@H]2[C@H](C(=O)Nc3cc(C(O)CN(C)C)ncc3F)O[C@@](C)(C(F)(F)F)[C@H]2C)ccc(F)c1F` (single isomer, unassigned) [Compound 377], for which the concentration for half-maximal inhibition (IC50) is less than 10 nM. On to `COc1c([C@H]2[C@H](C(=O)NCC3(C)CCOCC3)O[C@@](C)(C(F)(F)F)[C@H]2C)ccc(F)c1F` [Compound 300, (2R,3S,4S,5R)-3-(3,4-difluoro-2-methoxyphenyl)-4,5-dimethyl-N-((4-methyltetrahydro-2H-pyran-4-yl)methyl)-5-(trifluoromethyl)tetrahydrofuran-2-carboxamide], for which the IC50 was not below 1000 nM. With `C[C@H]1[C@@H](c2ccc(F)c(F)c2OC(F)F)[C@H](C(=O)Nc2ccc(=O)n(C)c2)O[C@@]1(C)C(F)(F)F` (single isomer, unassigned) [Compound 68], the 50% inhibitory concentration (IC50) lay within 10 to 100 nM. Under `COc1c(C2C(C(=O)Nc3ccn4nnnc4c3)OC(C)(C(F)(F)F)C2C)ccc(F)c1C` (single isomer, unassigned) [Compound 133, 3-(4-fluoro-2-methoxy-3-methyl-phenyl)-4,5-dimethyl-N-(tetrazolo[1,5-a]pyridin-7-yl)-5-(trifluoromethyl)tetrahydrofuran-2-carboxamide] stands 100 to 1000 nM. Regarding `COc1c([C@H]2[C@H](C(=O)Nc3ccnc(N4C(=O)CN(C)C[C@@H]4CO)c3)O[C@@](C)(C(F)(F)F)[C@H]2C)ccc(F)c1F` [Compound 511, (2R,3S,4S,5R)-3-(3,4-difluoro-2-methoxyphenyl)-N-(2-((R)-2-(hydroxymethyl)-4-methyl-6-oxopiperazin-1-yl)pyridin-4-yl)-4,5-dimethyl-5-(trifluoromethyl)tetrahydrofuran-2-carboxamide], the IC50 is less than 10 nM. As for `COc1c([C@H]2[C@H](C(=O)Nc3ccc(C(N)=O)nc3)O[C@@](C)(C(F)(F)F)[C@H]2C)ccc(F)c1F` [Compound 1, 5-((2R,3S,4S,5R)-3-(3,4-difluoro-2-methoxyphenyl)-4,5-dimethyl-5-(trifluoromethyl)tetrahydrofuran-2-carboxamido)picolinamide], the IC50 was less than 10 nM. `COc1c([C@H]2[C@H](C(=O)Nc3ccnc(N4C(=O)CN(C)C[C@@H]4C)c3)O[C@@](C)(C(F)(F)F)[C@H]2C)ccc(F)c1F` [Compound 469, (2R,3S,4S,5R)-3-(3,4-difluoro-2-methoxyphenyl)-N-(2-((S)-2,4-dimethyl-6-oxopiperazin-1-yl)pyridin-4-yl)-4,5-dimethyl-5-(trifluoromethyl)tetrahydrofuran-2-carboxamide]: the IC50 was less than 10 nM.

On to `COCc1cc(CNC(=O)[C@@H]2O[C@@](C)(C(F)(F)F)[C@@H](C)[C@H]2c2ccc(F)c(F)c2OC)n[nH]1` [Compound 288, (2R,3S,4S,5R)-3-(3,4-difluoro-2-methoxyphenyl)-N-((5-(methoxymethyl)-1H-pyrazol-3-yl)methyl)-4,5-dimethyl-5-(trifluoromethyl)tetrahydrofuran-2-carboxamide], for which the IC50 was not below 1000 nM. Consider `COc1c(C2C(C(=O)Nc3ccnc(C(O)CO)c3)OC(C)(C(F)(F)F)C2C)ccc(F)c1F` (single isomer, unassigned) [Compound 44, 3-(3,4-difluoro-2-methoxy-phenyl)-N-[2-(1,2-dihydroxyethyl)-4-pyridyl]-4,5-dimethyl-5-(trifluoromethyl)tetrahydrofuran-2-carboxamide], for which the 50% inhibitory concentration (IC50) was less than 10 nM.

Regarding `COc1c(C2C(C(=O)Nc3ccnc(S(C)(=O)=O)c3)OC(C)(C(F)(F)F)C2C)ccc(F)c1F` (single isomer, unassigned) [Compound 50, 3-(3,4-difluoro-2-methoxy-phenyl)-4,5-dimethyl-N-(2-methylsulfonyl-4-pyridyl)-5-(trifluoromethyl)tetrahydrofuran-2-carboxamide], the IC50 was less than 10 nM. As to `CCOc1c([C@H]2[C@H](C(=O)Nc3cncc(S(C)(=O)=O)c3)O[C@@](C)(C(F)(F)F)[C@H]2C)ccc(F)c1F` (stereo in doubt) [Compound 107, rel-(2R,3S,4S,5R)-3-(2-ethoxy-3,4-difluorophenyl)-4,5-dimethyl-N-(5-(methylsulfonyl)pyridin-3-yl)-5-(trifluoromethyl)tetrahydrofuran-2-carboxamide], the concentration for half-maximal inhibition (IC50) was less than 10 nM.

Take `COCC(NC(C)C)c1ccc(NC(=O)[C@@H]2O[C@@](C)(C(F)(F)F)[C@@H](C)[C@H]2c2ccc(F)c(F)c2OC)cn1` (single isomer, unassigned) [Compound 420, rel-(2R*,3S*,4S*,5R*)-3-(3,4-difluoro-2-methoxyphenyl)-N-(6-(1-(isopropylamino)-2-methoxyethyl)pyridin-3-yl)-4,5-dimethyl-5-(trifluoromethyl)-tetrahydrofuran-2-carboxamide]: the IC50 was not below 1000 nM. Consider `COc1c([C@H]2[C@H](C(=O)Nc3ccnc(C[C@H]4COCCN4)c3)O[C@@](C)(C(F)(F)F)[C@H]2C)ccc(F)c1F` [Compound 214, (2R,3S,4S,5R)-3-(3,4-difluoro-2-methoxyphenyl)-4,5-dimethyl-N-(2-(((S)-morpholin-3-yl)methyl)pyridin-4-yl)-5-(trifluoromethyl)tetrahydrofuran-2-carboxamide], for which the IC50 lay within 10 to 100 nM. Turning to `COc1c(C2C(C(=O)Nc3ccnc(C(=O)O)c3)OC(C)(C(F)(F)F)C2C)ccc(F)c1C(F)F` (single isomer, unassigned) [Compound 174], the half-maximal inhibitory concentration (IC50) is less than 10 nM. Regarding `CNCc1c([C@H]2[C@H](C(=O)Nc3cn(C(F)F)nc3C)O[C@@](C)(C(F)(F)F)[C@H]2C)ccc(F)c1F` [Compound 671, (2R,3S,4S,5R)-3-(3,4-difluoro-2-((methylamino)methyl)phenyl)-N-(1-(difluoromethyl)-3-methyl-1H-pyrazol-4-yl)-4,5-dimethyl-5-(trifluoromethyl)tetrahydrofuran-2-carboxamide], the half-inhibitory concentration (IC50) fell in the range of 100 to 1000 nM. For `COc1c([C@H]2[C@H](C(=O)Nc3ccnc(O[C@H]4COC[C@H]4O)n3)O[C@@](C)(C(F)(F)F)[C@H]2C)ccc(F)c1F` (single isomer, unassigned) [Compound 242, rel-(2R*,3S*,4S*,5R*)-3-(3,4-difluoro-2-methoxyphenyl)-N-(2-(((3S,4R)-4-hydroxytetrahydrofuran-3-yl)oxy)pyrimidin-4-yl)-4,5-dimethyl-5-(trifluoromethyl)tetrahydrofuran-2-carboxamide], the IC50 lay within 10 to 100 nM. On to `Cc1nn(C(F)F)cc1NC(=O)[C@@H]1O[C@@](C)(C(F)(F)F)[C@@H](C)[C@H]1c1ccc(F)c(F)c1OCC(=O)N(C)O` [Compound 604, (2R,3S,4S,5R)-3-(3,4-difluoro-2-(2-(hydroxy(methyl)amino)-2-oxoethoxy)phenyl)-N-(1-(difluoromethyl)-3-methyl-1H-pyrazol-4-yl)-4,5-dimethyl-5-(trifluoromethyl)tetrahydrofuran-2-carboxamide], for which the IC50 lay in the range of 100 to 1000 nM.
